Reference: USRE50528E1, “Compounds and compositions for modulating EGFR mutant kinase activities” (Yuhan Corporation, priority 2014, dated 2025)
pIC50: −log10 of the molar value.

Columns and labels:
EGFR mutant L858R/T790M = biological target: T1, EGFR mutant L858R/T790M (Homo sapiens, UniProt P00533, L858R/T790M); experiment: Kinase inhibition assay, EGFR L858R/T790M; type: biochemical; details: read-out: EGFR mutants L858R/T790M;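 also: truncated human enzyme preincubated two hours with compound, then one hour with one millimolar ATP and ULight-PolyGT peptide, Europium-labeled antibody detection, IC50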
T1 construct: truncated human JAK3, EGFR mutants such as del E746-A750; purchased Carna Biosciences
T1 sequence (P00533 669-1210 T790M/L858R limits assumed): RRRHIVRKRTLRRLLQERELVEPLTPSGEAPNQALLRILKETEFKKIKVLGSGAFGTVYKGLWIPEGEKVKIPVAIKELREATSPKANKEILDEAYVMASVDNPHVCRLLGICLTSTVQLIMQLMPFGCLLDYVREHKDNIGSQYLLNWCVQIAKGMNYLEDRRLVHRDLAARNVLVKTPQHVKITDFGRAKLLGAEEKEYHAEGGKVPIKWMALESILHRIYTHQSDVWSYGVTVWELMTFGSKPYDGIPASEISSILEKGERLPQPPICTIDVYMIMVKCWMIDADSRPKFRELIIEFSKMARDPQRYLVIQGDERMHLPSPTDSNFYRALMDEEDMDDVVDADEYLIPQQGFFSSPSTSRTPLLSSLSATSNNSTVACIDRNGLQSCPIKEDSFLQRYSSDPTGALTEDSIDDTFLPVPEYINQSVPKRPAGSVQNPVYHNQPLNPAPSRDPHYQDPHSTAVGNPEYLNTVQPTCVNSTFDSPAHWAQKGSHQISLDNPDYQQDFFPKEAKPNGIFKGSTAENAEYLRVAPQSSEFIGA

EGFR mutant L858R = biological target: T2, EGFR mutant L858R (Homo sapiens, UniProt P00533, L858R); experiment: Kinase inhibition assay, EGFR L858R; type: biochemical; details: read-out: EGFR mutants L858R;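 also: truncated human EGFR L858R kinase with compound preincubation, ULight-PolyGT peptide phosphorylation read by Europium-antibody Lance detection, IC50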
T2 construct: truncated human JAK3, EGFR mutants such as del E746-A750; purchased Carna Biosciences
T2 sequence (P00533 669-1210 L858R limits assumed): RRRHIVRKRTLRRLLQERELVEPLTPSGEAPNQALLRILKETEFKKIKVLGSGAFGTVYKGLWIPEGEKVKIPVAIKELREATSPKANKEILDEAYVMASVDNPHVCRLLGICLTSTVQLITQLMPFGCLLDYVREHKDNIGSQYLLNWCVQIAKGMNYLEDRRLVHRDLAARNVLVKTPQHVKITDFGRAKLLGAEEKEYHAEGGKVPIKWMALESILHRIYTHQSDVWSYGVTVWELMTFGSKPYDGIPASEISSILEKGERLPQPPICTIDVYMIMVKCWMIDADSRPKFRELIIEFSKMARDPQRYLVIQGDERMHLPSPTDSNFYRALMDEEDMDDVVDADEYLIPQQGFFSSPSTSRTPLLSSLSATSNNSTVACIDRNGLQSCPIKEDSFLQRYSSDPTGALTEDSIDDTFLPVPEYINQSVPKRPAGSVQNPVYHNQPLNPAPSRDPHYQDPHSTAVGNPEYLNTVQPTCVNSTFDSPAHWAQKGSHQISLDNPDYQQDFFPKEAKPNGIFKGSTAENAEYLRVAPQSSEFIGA

EGFR mutant Del19/T790M = biological target: T3, EGFR mutant Del19/T790M (Homo sapiens, UniProt P00533, DEL746-750/T790M); experiment: Kinase inhibition assay, EGFR del E746-A750/T790M; type: biochemical; details: read-out: EGFR mutants Del19/T790M
T3 construct: truncated human JAK3, EGFR mutants such as del E746-A750; purchased Carna Biosciences
T3 sequence (P00533 with tags, fused parts or gaps DEL746-750/T790M limits assumed): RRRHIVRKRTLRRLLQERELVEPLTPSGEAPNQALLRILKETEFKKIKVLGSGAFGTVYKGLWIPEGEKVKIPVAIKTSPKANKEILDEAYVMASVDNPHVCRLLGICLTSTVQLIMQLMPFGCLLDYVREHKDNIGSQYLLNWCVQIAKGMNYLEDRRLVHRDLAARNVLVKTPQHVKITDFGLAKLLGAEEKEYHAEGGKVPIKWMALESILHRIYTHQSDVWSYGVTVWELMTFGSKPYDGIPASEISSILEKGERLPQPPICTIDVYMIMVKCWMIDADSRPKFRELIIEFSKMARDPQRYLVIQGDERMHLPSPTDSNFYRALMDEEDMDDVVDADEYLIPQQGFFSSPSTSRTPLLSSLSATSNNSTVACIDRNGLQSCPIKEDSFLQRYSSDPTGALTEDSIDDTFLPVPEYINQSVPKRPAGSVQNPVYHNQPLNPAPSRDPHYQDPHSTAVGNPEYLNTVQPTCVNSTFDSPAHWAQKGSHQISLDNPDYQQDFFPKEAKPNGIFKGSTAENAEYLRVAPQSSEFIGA

[1] = biological target: T4, EGFR mutant Del19 (E746-A750) (Homo sapiens, UniProt P00533, DEL746-750); experiment: Kinase inhibition assay, EGFR del E746-A750; type: biochemical; details: read-out: EGFR mutants Del19 (E746-A750);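 also: truncated human EGFR mutant kinase, two-hour preincubation with compound, then one-hour reaction with ATP and ULight-PolyGT peptide, LANCE Europium-antibody phosphorylation readout, IC50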
T4 construct: truncated human JAK3, EGFR mutants such as del E746-A750; purchased Carna Biosciences
T4 sequence (P00533 with tags, fused parts or gaps DEL746-750 limits assumed): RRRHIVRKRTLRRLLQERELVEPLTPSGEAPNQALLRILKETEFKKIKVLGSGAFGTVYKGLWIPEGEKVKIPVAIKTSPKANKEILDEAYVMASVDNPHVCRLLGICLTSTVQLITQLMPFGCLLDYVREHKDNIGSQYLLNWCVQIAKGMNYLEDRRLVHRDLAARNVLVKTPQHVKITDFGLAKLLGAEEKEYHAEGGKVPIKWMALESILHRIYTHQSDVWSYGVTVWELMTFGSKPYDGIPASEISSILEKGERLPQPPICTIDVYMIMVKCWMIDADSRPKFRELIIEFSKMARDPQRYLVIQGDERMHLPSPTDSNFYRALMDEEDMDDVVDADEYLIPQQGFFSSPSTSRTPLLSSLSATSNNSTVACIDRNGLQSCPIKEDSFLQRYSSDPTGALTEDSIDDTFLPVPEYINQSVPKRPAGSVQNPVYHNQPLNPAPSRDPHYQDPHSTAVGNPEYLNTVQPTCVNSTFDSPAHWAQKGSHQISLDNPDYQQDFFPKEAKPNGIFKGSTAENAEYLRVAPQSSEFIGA

EGFR mutant T790M = biological target: T5, EGFR mutant T790M (Homo sapiens, UniProt P00533, T790M); experiment: Kinase inhibition assay, EGFR mutant T790M; details: biochemical potency;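 also: truncated human EGFR mutant enzyme preincubated two hours with compound, then ATP plus ULight-PolyGT peptide for one hour, Europium-labeled antibody LANCE detection, IC50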
T5 construct: truncated human JAK3, EGFR mutants such as del E746-A750; purchased Carna Biosciences
T5 sequence (P00533 669-1210 T790M limits assumed): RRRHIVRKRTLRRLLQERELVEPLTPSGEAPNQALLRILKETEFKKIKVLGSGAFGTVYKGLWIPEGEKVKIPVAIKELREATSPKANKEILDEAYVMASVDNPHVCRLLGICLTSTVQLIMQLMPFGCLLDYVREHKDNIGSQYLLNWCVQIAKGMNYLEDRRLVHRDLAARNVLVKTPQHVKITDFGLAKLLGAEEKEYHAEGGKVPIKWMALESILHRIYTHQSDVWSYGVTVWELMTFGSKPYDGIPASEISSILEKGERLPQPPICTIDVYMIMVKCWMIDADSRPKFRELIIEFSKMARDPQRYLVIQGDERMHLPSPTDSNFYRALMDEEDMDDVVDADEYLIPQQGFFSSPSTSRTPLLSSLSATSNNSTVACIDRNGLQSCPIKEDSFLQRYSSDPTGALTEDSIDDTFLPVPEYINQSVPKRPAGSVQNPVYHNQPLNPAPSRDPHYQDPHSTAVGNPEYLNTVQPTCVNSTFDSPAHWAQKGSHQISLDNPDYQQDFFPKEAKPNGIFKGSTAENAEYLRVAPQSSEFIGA

SYK = biological target: T6, SYK (Homo sapiens, UniProt P43405); experiment: Kinase inhibition assay, SYK; type: biochemical; details: biochemical potency;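 also: purified full-length human SYK pre-incubated 30 min with compound, then ULight-TK peptide phosphorylation for 1 h, detected with Europium-labeled antibody in Lance buffer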
T6 construct: Purified human, full-length SYK, KDR; purchased Carna Biosciences

| Structure (SMILES) | pIC50 (EGFR mutant L858R/T790M) | pIC50 (EGFR mutant L858R) | pIC50 (EGFR mutant Del19/T790M) | pIC50 [1] | pIC50 (EGFR mutant T790M) | pIC50 (SYK) |
| --- | --- | --- | --- | --- | --- | --- |
| C=CC(=O)Nc1cc(Nc2nccc(-n3nc(C)c(CN4CCC4)c3C)n2)c(OC)cc1N1CCOCC1 [Compound 70, N-(5-(4-(4-(azetidin-1-ylmethyl)-3,5-dimethyl-1H-pyrazol-1-yl)pyrimidin-2-ylamino)-4-methoxy-2-morpholinophenyl)acrylamide] | 6.70 to 7.70 | 6.70 to 7.70 | 6.70 to 7.70 | 6.70 to 7.70 | – | – |
| C=CC(=O)Nc1cc(Nc2nccc(-n3ccc(-c4ccccc4)n3)n2)c(OC)cc1N1CCN(C)CC1 [Compound 85, N-(4-methoxy-2-(4-methylpiperazin-1-yl)-5-(4-(3-phenyl-1H-pyrazol-1-yl)pyrimidin-2-ylamino)phenyl)acrylamide] | 6.70 to 7.70 | 6.70 to 7.70 | > 7.70 | > 7.70 | > 7.70 | – |
| C=CC(=O)Nc1cc(Nc2nccc(-n3cc(CO)c(-c4ccccc4)n3)n2)c(OC)cc1N1CCOCC1 [Compound 91, N-(5-(4-(4-(hydroxymethyl)-3-phenyl-1H-pyrazol-1-yl)pyrimidin-2-ylamino)-4-methoxy-2-morpholinophenyl)acrylamide] | 6.70 to 7.70 | 6.70 to 7.70 | > 7.70 | > 7.70 | 6.00 to 6.70 | – |
| C=CC(=O)Nc1cc(Nc2ncc(C)c(-n3cc(CN4CCC4)c(C(C)C)n3)n2)c(OC)cc1N1CCOCC1 [Compound 125, N-(5-(4-(4-(azetidin-1-ylmethyl)-3-isopropyl-1H-pyrazol-1-yl)-5-methylpyrimidin-2-ylamino)-4-methoxy-2-morpholinophenyl)acrylamide] | > 7.70 | > 7.70 | > 7.70 | > 7.70 | > 7.70 | – |

The next lines start with the values.

| pIC50 (EGFR mutant L858R/T790M) | pIC50 (EGFR mutant L858R) | pIC50 (EGFR mutant Del19/T790M) | pIC50 [1] | pIC50 (EGFR mutant T790M) | pIC50 (SYK) | Structure (SMILES) |
| --- | --- | --- | --- | --- | --- | --- |
| > 7.70 | 6.70 to 7.70 | > 7.70 | 6.70 to 7.70 | 6.70 to 7.70 | – | C=CC(=O)Nc1cc(Nc2nccc(-n3cc(CN(C)C)c(-c4cc(C)ccc4C)n3)n2)c(OC)cc1N1CCOCC1 [Compound 89, N-(5-(4-(4-((dimethylamino)methyl)-3-(2,5-dimethylphenyl)-1H-pyrazol-1-yl)pyrimidin-2-ylamino)-4-methoxy-2-morpholinophenyl)acrylamide] |
| > 7.70 | > 7.70 | – | > 7.70 | > 7.70 | < 6.00 | C=CC(=O)Nc1cc(Nc2nccc(-n3cc(CN(C)C)c(C(C)(C)C)n3)n2)c(OC)cc1N(C)C1COC1 [Compound 102, N-(5-(4-(3-tert-butyl-4-((dimethylamino)methyl)-1H-pyrazol-1-yl)pyrimidin-2-ylamino)-4-methoxy-2-(methyl(oxetan-3-yl)amino)phenyl)acrylamide] |
| > 7.70 | > 7.70 | > 7.70 | > 7.70 | > 7.70 | – | C=CC(=O)Nc1cc(Nc2nccc(-n3cc(CN(C)C)c(C(C)C)n3)n2)c(OC)cc1N(C)CCOC [Compound 112, N-(5-(4-(4-((dimethylamino)methyl)-3-isopropyl-1H-pyrazol-1-yl)pyrimidin-2-ylamino)-4-methoxy-2-((2-methoxyethyl)(methyl)amino)phenyl)acrylamide] |
| > 7.70 | > 7.70 | > 7.70 | > 7.70 | > 7.70 | – | C=CC(=O)Nc1cc(Nc2nccc(-n3cc(CN4CCC4)c(C(C)C)n3)n2)c(OC)cc1N(C)CCOC [Compound 113, N-(5-(4-(4-(azetidin-1-ylmethyl)-3-isopropyl-1H-pyrazol-1-yl)pyrimidin-2-ylamino)-4-methoxy-2-((2-methoxyethyl)(methyl)amino)phenyl)acrylamide] |
| > 7.70 | > 7.70 | > 7.70 | > 7.70 | > 7.70 | – | C=CC(=O)Nc1cc(Nc2ncc(C)c(-n3cc(CN4CCC4)c(-c4ccccc4)n3)n2)c(OC)cc1N1CCOCC1 [Compound 121, N-(5-(4-(4-(azetidin-1-ylmethyl)-3-phenyl-1H-pyrazol-1-yl)-5-methylpyrimidin-2-ylamino)-4-methoxy-2-morpholinophenyl)acrylamide] |
